Laboratory results reported in patent publication US7714134B2, “Compounds and use of tetrahydropyridothiophenes” (4SC AG, priority 2004, dated 2010).

What was measured:
[1] = tested on: RKO colon adenocarcinoma cells (RKOp27) arrested by expression of ectopic p27Kip1; experiment: Alamar Blue cell viability assay, cell cycle specific mode of action, RKO p27 induced (arrested by Ponasterone A-induced p27Kip1); type: cell-based; conditions: Homo sapiens, RKOp27, 72 h, cells arrested by p27Kip1 induced with 10 μM Ponasterone A, 72 hours incubation
Method: To determine the cell cycle specific mode of action, subdlones of RKO colon adenocarcinoma cells (RKOp27 or RKOp21 as described by Schmidt et al. in Oncogene 19, 2423-2429; 2000) are seeded into 96 well flat bottom plates at a density of 16000 cells per well in a volume of 50 μl per well in DMEM growth medium with 10% FCS containing 10 μM Ponasterone A. 24 hours after seeding the 50 μl each of the compound dilutions in DMEM medium are added into each well of the 96 Well plate. Each compound dilution is tested as quadruplicates. Wells containing untreated control cells are filled with 50 μl DMEM medium containing 1% DMSO. The cells are then incubated with the substances for 72 hours at 37° C. in a humidified atmosphere containing 5% carbon dioxide. To determine the viability of the cells, 10 μl of an Alamar Blue solution (Biosource) are added and the fluorescence was measured at an extinction of 544 nm and an emission of 590 nm. For the calculation of the cell viability the emission value from untreated cells is set as 100% viability and the emission rates of treated cells are set in relation to the values of untreated cells. Viabilities are expressed as % values. Viability is compared of proliferating cells grown in the absence of the inducer Ponasterone A, versus viability of cells arrested by the expression of ectopic p27Kip1 induced by Ponasterone A. The data of this experimental setting are summarized in table A (2nd column).

[2] = tested on: RKO (RKOp27) human colon adenocarcinoma cells; experiment: Alamar Blue cell viability assay, anti-proliferative/cytotoxic activity, RKO p27 uninduced; type: cell-based; conditions: RKOp27, 72 h, proliferating cells, absence of the inducer Ponasterone A, 72 hours incubation
Method: The anti-proliferative/cytotoxic activity of the compounds described herein, can be tested on subdlones of RKO (RKOp27) human colon adenocarcinoma cells (Schmidt et al., Oncogene 19, 2423-2429; 2000) using the Alamar Blue cell viability assay (described in O'Brien et al. Eur J Biochem 267, 5421-5426, 2000). The compounds are dissolved as 20 mM solutions in dimethylsulfoxide (DMSO) and subsequently diluted in semi-logarithmic steps. DMSO dilutions are further diluted 1:100 into Dulbecco's modified Eagle's medium (DMEM) containing 10% fetal calf serum to a final concentration twice as much as the final concentration in the test. RKO subclones are seeded into 96 well flat bottom plates at a density of 4000 cells per well in a volume of 50 µl per well. 24 hours after seeding the 50 μl each of the compound dilutions in DMEM medium are added into each well of the 96 Well plate. Each compound dilution is tested as quadruplicates. Wells containing untreated control cells are filled with 50 μl DMEM medium containing 1% DMSO. The cells are then incubated with the substances for 72 hours at 37° C. in a humidified atmosphere containing 5% carbon dioxide. To determine the viability of the cells, 10 μl of an Alamar Blue solution (Biosource) are added and the fluorescence is measured at an extinction of 544 nm and an emission of 590 nm. For the calculation of the cell viability the emission value from untreated cells is set as 100% viability and the emission rates of treated cells are set in relation to the values of untreated cells. Viabilities are expressed as % values.
The corresponding IC50 values of the compounds for anti-proliferative/cytotoxic activity are determined from the concentration-effect curves.
Representative IC50 values for anti-proliferation/cytotoxicity determined for the compounds mentioned and numbered as Examples in the examples above follow from the following table A (1st column), in which the numbers of the compound correspond to the numbers of the examples. Any or all of the compounds according to the present invention which are listed in the Table A, as well as their salts, are to be mentioned as a particular interesting subject of the present invention.

Row | IC50 [1] | SMILES | IC50 [2]
1 | > 60 µM | CCCOC(=O)N1CCc2c(sc(NC(=O)c3ccccc3)c2C#N)C1 [Compound 64, 3-Cyano-2-[(1-phenyl-methanoyl)-amino]-4,7-dihydro-5H-thieno[2,3-c]pyridine-6-carboxylic acid propyl ester] | ≤ 3 µM
2 | > 60 µM | CCCCCCOC(=O)N1CCc2c(sc(NC(=O)c3ccccc3)c2C#N)C1 [Compound 57, 3-Cyano-2-[(1-phenyl-methanoyl)-amino]-4,7-dihydro-5H-thieno[2,3-c]pyridine-6-carboxylic acid hexyl ester] | ≤ 3 µM
3 | > 60 µM | N#Cc1c(NC(=O)c2ccccc2)sc2c1CCN(C(=O)OCc1ccccc1)C2 [Compound 61, 3-Cyano-2-[(1-phenyl-methanoyl)-amino]-4,7-dihydro-5H-thieno[2,3-c]pyridine-6-carboxylic acid benzyl ester] | ≤ 3 µM
4 | > 100 µM | CCOC(=O)N1CCc2c(sc(NC(=O)c3cc(OC)cc(OC)c3)c2C#N)C1 [Compound 19, N-(6-Ethoxycarbonyl-3-cyano-4,5,6,7-tetrahydro-thieno[2,3-c]pyridin-2-yl)-3,5-dimethoxybenzamide] | ≤ 2 µM
5 | > 60 µM | CCOC(=O)N1CCc2c(sc(NC(=O)c3ccccc3[N+](=O)[O-])c2C#N)C1 [Compound 46, 3-Cyano-2-{[1-(2-nitro-phenyl)-methanoyl]-amino}-4,7-dihydro-5H-thieno[2,3-c]pyridine-6-carboxylic acid ethyl ester] | ≤ 3 µM
6 | > 60 µM | N#Cc1c(NC(=O)c2ccccc2)sc2c1CCN(C(=O)CCc1c[nH]c3ccccc13)C2 [Compound 30, N-[3-Cyano-6-(3-1H-indol-3-yl-propanoyl)-4,5,6,7-tetrahydro-thieno[2,3-c]pyridin-2-yl]-benzamide] | ≤ 3 µM
7 | > 60 µM | N#Cc1c(NC(=O)c2ccccc2)sc2c1CCN(C(=O)OCCc1ccccn1)C2 [Compound 68, 3-Cyano-2-[(1-phenyl-methanoyl)-amino]-4,7-dihydro-5H-thieno[2,3-c]pyridine-6-carboxylic acid 2-pyridin-2-yl-ethyl ester] | ≤ 3 µM
8 | > 60 µM | N#Cc1c(NC(=O)c2ccccc2)sc2c1CCN(C(=O)OCCN1CCOCC1)C2 [Compound 67, 3-Cyano-2-[(1-phenyl-methanoyl)-amino]4,7-dihydro-5H-thieno[2,3-c]pyridine-6-carboxylic acid 2-morpholin-4-yl-ethyl ester] | ≤ 3 µM
9 | > 60 µM | N#Cc1c(NC(=O)c2ccccc2)sc2c1CCN(C(=O)OCCCN1CCOCC1)C2 [Compound 70, 3-Cyano-2-[(1-phenyl-methanoyl)-amino]-4,7-dihydro-5H-thieno[2,3-c]pyridine-6-carboxylic acid 3-morpholin-4-yl-propyl ester] | ≤ 3 µM
10 | > 60 µM | N#Cc1c(NC(=O)c2ccccc2)sc2c1CCN(C(=O)OCc1cccnc1)C2 [Compound 63, 3-Cyano-2-[(1-phenyl-methanoyl)-amino]-4,7-dihydro-5H-thieno[2,3-c]pyridine-6carboxylic acid pyridin-3-ylmethyl ester] | ≤ 3 µM
11 | > 100 µM | N#Cc1c(NC(=O)c2ccccc2)sc2c1CCN(C(=O)SCCC(=O)O)C2 [Compound 103, 3-(1-{3-Cyano-2-[(1-phenyl-methanoyl)-amino]-4,7-dihydro-5H-thieno[2,3-c]pyridin-6-yl}-methanoylsulfanyl)-propionic acid] | ≤ 3 µM
12 | > 60 µM | CCOC(=O)N1CCc2c(sc(NC(=O)c3ccc(OC)cc3)c2C#N)C1 [Compound 49, 3-Cyano-2-{[1-(4-methoxy-phenyl)-methanoyl]-amino}-4,7-dihydro-5H-thieno[2,3-c]pyridine-6-carboxylic acid ethyl ester] | ≤ 3 µM
13 | > 60 µM | CCOC(=O)N1CCc2c(sc(NC(=O)c3cccc(O)c3)c2C#N)C1 [Compound 53, 3-Cyano-2-{[1-(3-hydroxy-phenyl)-methanoyl]-amino}-4,7-dihydro-5H-thieno[2,3-c]pyridine-6-carboxylic acid ethyl ester] | ≤ 3 µM
14 | > 60 µM | N#Cc1c(NC(=O)c2ccccc2)sc2c1CCN(C(=O)OCCCc1cccnc1)C2 [Compound 72, 3-Cyano-2-[(1-phenyl-methanoyl)-amino]-4,7-dihydro-5H-thieno[2,3-c]pyridine-6-carboxylic acid 3-pyridin3-yl-propyl ester] | ≤ 3 µM
15 | > 60 µM | N#Cc1c(NC(=O)c2ccccc2)sc2c1CCN(C(=O)OCCCc1ccccn1)C2 [Compound 71, 3-Cyano-2-[(1-phenyl-methanoyl)-amino]-4,7-dihydro-5H-thieno[2,3-c]pyridine-6-carboxylic acid 3-pyridin-2-yl-propyl ester] | ≤ 3 µM
16 | 80 µM | CCCC(=O)N1CCc2c(sc(NC(=O)c3ccccc3)c2C#N)C1 [Compound 5] | ≤ 2 µM
17 | > 100 µM | N#Cc1c(NC(=O)c2ccccc2)sc2c1CCN(C(=O)CO)C2 [Compound 87, N-[3-Cyano-6-(2-hydroxy-ethanoyl)-4,5,6,7-tetrahydro-thieno[2,3-c]pyridin-2-yl]-benzamide] | ≤ 3 µM
18 | > 100 µM | CC(=O)OCCCC(=O)N1CCc2c(sc(NC(=O)c3ccccc3)c2C#N)C1 [Compound 86, Acetic acid 4-{3-cyano-2-[(1-phenyl-methanoyl)-amino]4,7-dihydro-5H-thieno[2,3-c]pyridin-6-yl}-4-oxo-butyl ester] | ≤ 3 µM
19 | > 60 µM | CC(C)COC(=O)N1CCc2c(sc(NC(=O)c3ccccc3)c2C#N)C1 [Compound 56, 3-Cyano-2-[(1-phenyl-methanoyl)-amino]-4,7-dihydro-5H-thieno[2,3-c]pyridine-6-carboxylic acid isobutyl ester] | ≤ 3 µM
20 | > 60 µM | CCOC(=O)N1CCc2c(sc(NC(=O)c3ccc(C)cc3)c2C#N)C1 [Compound 50, 3-Cyano-2-[(1-p-tolyl-methanoyl)-amino]-4,7-dihydro-5H-thieno[2,3-c]pyridine-6-carboxylic acid ethyl ester] | ≤ 3 µM
21 | > 100 µM | CCNC(=O)N1CCc2c(sc(NC(=O)c3ccccc3)c2C#N)C1 [Compound 98, 3-Cyano-2-[(1-phenyl-methanoyl)-amino]-4,7-dihydro-5H-thieno[2,3-c]pyridine-6-carboxylic acid ethylamide] | ≤ 3 µM
22 | > 60 µM | N#Cc1c(NC(=O)c2ccccc2)sc2c1CCN(C(=O)NCCc1ccc([N+](=O)[O-])cc1)C2 [Compound 82, 3-Cyano-2-[(1-phenyl-methanoyl)amino]-4,7-dihydro-5H-thieno[2,3-c]pyridine-6-carboxylic acid [2-(4-nitro-phenyl)-ethyl]-amide] | ≤ 3 µM
23 | > 60 µM | N#Cc1c(NC(=O)c2ccccc2)sc2c1CCN(C(=O)CCc1nccs1)C2 [Compound 33, N-[3-Cyano-6-(3thiazol-2-yl-propanoyl)-4,5,6,7-tetrahydro-thieno[2,3-c]pyridin-2-yl]-benzamide] | ≤ 3 µM
24 | > 60 µM | N#Cc1c(NC(=O)c2ccccc2)sc2c1CCN(C(=O)OCc1ccccn1)C2 [Compound 62, 3-Cyano-2-[(1-phenyl-methanoyl)-amino]-4,7-dihydro-5H-thieno[2,3-c]pyridine-6-carboxylic acid pyridin-2-ylmethyl ester] | ≤ 3 µM
25 | > 100 µM | CCCCCOC(=O)N1CCc2c(sc(NC(=O)c3ccccc3)c2C#N)C1 [Compound 14] | ≤ 2 µM
